# Assay results taken from publication PMC7700572, “Synthesis, Kinetic and Conformational Studies of 2-Substituted-5-(β-D-glucopyranosyl)-pyrimidin-4-ones as Potential Inhibitors of Glycogen Phosphorylase” (Molecules, 2020).
# Molecular target: T1, rabbit muscle glycogen phosphorylase (RMGP) (Oryctolagus cuniculus, UniProt P00489)
# T1 construct: gene PYGM
# T1 sequence (P00489 2-843): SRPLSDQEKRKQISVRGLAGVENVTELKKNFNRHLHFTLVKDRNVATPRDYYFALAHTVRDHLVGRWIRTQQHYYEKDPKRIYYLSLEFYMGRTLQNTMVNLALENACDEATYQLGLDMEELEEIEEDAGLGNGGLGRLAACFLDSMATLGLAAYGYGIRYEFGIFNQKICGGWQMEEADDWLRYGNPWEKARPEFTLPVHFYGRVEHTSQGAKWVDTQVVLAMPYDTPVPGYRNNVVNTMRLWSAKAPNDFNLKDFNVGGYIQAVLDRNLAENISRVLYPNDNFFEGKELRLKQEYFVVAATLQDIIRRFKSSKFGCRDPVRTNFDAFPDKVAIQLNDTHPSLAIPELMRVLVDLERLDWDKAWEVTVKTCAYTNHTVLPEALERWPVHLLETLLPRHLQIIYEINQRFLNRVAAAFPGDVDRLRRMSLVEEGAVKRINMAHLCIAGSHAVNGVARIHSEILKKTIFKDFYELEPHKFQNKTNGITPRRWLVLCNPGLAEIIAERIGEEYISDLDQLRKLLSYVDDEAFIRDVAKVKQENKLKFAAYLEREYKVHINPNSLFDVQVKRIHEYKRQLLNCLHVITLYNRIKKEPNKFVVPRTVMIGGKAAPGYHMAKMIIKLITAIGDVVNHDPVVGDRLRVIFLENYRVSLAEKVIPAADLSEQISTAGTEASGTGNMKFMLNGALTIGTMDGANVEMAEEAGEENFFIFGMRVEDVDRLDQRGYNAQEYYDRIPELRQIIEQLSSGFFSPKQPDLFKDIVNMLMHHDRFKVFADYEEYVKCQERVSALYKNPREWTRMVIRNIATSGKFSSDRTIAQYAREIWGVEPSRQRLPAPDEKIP
# Assay: enzyme kinetics in the direction of glycogen synthesis, RMGP isolated from rabbit skeletal muscle, […] AMP
# Type: biochemical
row,Compound,IC50 [µM]
1,"O=c1[nH]cc([C@@H]2O[C@H](CO)[C@@H](O)[C@H](O)[C@H]2O)c(=O)[nH]1 [compound 4, 5-(β-D-Glucopyranosyl)pyrimidin-2,4-dione]",88.5 ± 4.3
2,"O=c1[nH]c(Nc2ccc3[nH]c4ccccc4c(=O)c3c2)ncc1[C@@H]1O[C@H](CO)[C@@H](O)[C@H](O)[C@H]1O [compound 6, 2-[(Acridin-9(10H)-on-2-yl)amino]-5-(β-D-glucopyranosyl)pyrimidin-4(3H)-one]",5.4 ± 0.5
3,"Nc1ncc([C@@H]2O[C@H](CO)[C@@H](O)[C@H](O)[C@H]2O)c(=O)[nH]1 [compound 5, 2-Amino-5-(β-D-glucopyranosyl)pyrimidin-4(3H)-one]",396 ± 10.8
